Experiment [1] has as its target T1, K-2 to K-3 domains of rat plasminogen (Rattus norvegicus, UniProt Q01177).
T1 construct: made in house
T1 sequence (Q01177 184-352 limits assumed): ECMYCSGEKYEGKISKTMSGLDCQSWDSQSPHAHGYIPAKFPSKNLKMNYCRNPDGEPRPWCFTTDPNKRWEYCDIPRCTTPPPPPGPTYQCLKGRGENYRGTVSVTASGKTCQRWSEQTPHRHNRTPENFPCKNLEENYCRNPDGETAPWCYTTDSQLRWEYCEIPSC
Nature of the experiment: ITC binding to rat plasminogen K-2 to K-3. The protocol:
(§1) The nucleotide sequence encoding the human LPA gene (NP_005568.2) was inserted into a mammalian expression vector containing a cytomegalovirus promoter. Protein expression was performed by transient transfection of human embryonic kidney 293 (HEK293) cells cultured in serum-free medium. The culture medium was collected five days after transfection and human apo(a) protein was purified using L-lysine affinity chromatography. Nucleotide sequences encoding various KIV domains of human apo(a) and human and rat plasminogen were inserted into a pET21a Escherichia coli expression vector. […] All protein concentrations were determined by A280. […] The microsyringe was loaded with a solution of the respective compounds, with the concentration measured by quantitative nuclear magnetic resonance, and was inserted into the calorimetric cell prefilled with the respective recombinant proteins of known concentration in ITC buffer. […] Thermodynamic parameters were calculated using the basic equation of thermodynamics (ΔG = ΔH - TΔS = -RTlnKd), where ΔG, ΔH and ΔS are the changes in free energy, enthalpy and entropy of binding, respectively; Kd is the equilibrium dissociation constant; T is the absolute temperature ([…]); and R is the gas constant (1.987 cal mol^-1 K^-^1). […]

For experiment [2], the target named is T2, K-2 to K-3 domains of human plasminogen (Homo sapiens, UniProt P00747).
T2 construct: that for the K-2 to K-3 domains of human plasminogen; made in house
T2 sequence (P00747 184-352 limits assumed): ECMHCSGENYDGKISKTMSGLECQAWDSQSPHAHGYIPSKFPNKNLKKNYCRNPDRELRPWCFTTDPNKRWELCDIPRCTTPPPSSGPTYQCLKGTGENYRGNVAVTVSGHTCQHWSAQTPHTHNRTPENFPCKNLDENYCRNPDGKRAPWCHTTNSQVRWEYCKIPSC
Briefly: ITC binding to human plasminogen K-2 to K-3. The protocol:
as §1

The structures appear in SMILES notation. A value given as a limit tells only on which side of the number the result lay.

By Kd is commonly meant the constant that tells how readily two partners part at equilibrium. As to `Cl.Cl.O=C(Nc1cccc(C[C@H](C(=O)O)[C@H]2CCNC2)c1)Nc1cccc(C[C@H](C(=O)O)[C@H]2CCNC2)c1` [LSN3441732], the Kd in experiment [1] is less than 10 nM; in experiment [2], 1600 nM. In addition, the “fold higher affinity for rat than human plasminogen K-2 to K-3” value in experiment [1] is “more than 100 fold”.
